Among the data in patent US9296698B2, “Amino heteroaryl compounds as beta-secretase modulators and methods of use” (Amgen Inc., priority 2009, dated 2016) are IC50 values, retold here.

Structures are written as SMILES. Where two headings read alike, the source gives them in different places. A value given as a limit tells only on which side of the number the result lay.

For experiment [1], the target named is BACE 1 (Beta Secretase enzyme) (Homo sapiens, UniProt P56817). Nature of the experiment: In vitro enzymatic BACE FRET assay. In kind it is biochemical. Put shortly: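 BACE activity read by FRET: peptide substrate (50 nM) carrying fluorophore and quencher across the cleavage site, incubated one hour in 0.05 M acetate pH 4.2, 10% DMSO final, 100 uM genapol. Tris addition raises pH to neutrality to stop the reaction before fluorescence is read.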
Sequence of BACE 1 (Beta Secretase enzyme) (P56817 46-501, species assumed): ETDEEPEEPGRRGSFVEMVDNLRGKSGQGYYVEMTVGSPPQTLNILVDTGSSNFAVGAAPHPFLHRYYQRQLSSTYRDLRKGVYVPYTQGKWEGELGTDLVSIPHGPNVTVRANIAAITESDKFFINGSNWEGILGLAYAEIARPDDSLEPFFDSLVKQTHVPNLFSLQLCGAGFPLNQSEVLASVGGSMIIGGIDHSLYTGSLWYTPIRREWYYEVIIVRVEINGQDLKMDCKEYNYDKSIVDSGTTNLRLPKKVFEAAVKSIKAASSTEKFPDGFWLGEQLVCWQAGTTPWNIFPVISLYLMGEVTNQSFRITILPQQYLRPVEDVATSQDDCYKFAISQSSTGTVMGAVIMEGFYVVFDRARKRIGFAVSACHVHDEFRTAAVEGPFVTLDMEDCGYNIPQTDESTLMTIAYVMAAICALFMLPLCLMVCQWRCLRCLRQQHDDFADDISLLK

Experiment [2] concerns Aβ40 in conditioned medium of cells stably expressing Amyloid Precursor Protein (APP). Nature of the experiment: In vitro BACE cell-based assay (HEK cell assay), Aβ40 sandwich ELISA. Summed up:
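Cells stably expressing APP received 10-point compound dilutions (top 100 μM or 10 μM; 0.1% DMSO) for 24 h. Secreted Aβ40 was quantified by sandwich ELISA (pAb40 capture, biotinylated 6E10 detection, europium time-resolved fluorescence). IC50 was derived from percent inhibition versus concentration.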
For orientation: An ELISA detects its analyte on a solid surface through an enzyme-linked reagent.

Where [3] appears, read: IC50 range symbols, Table 1, read-out: BACE 1 FRET assay.
The mark [4] stands for this setting: bound stated, read-out: IC50 value in the FRET BACE enzyme assay.
Setting [5] is: Homo sapiens, HEK293, 24 h, IC50 range symbols, Table 1, Aβ40, 24 h incubation, read-out: HEK cell assay.
The mark [6] stands for this setting: IC50 range symbols, Table 1, Aβ40, 24 h incubation, read-out: HEK cell assay.

Consider `CCCCOc1ccccc1-c1ccc2nc(N)c(CC(C)C(=O)NCC3CCCCC3)cc2c1` (stereo not shown) [Example 103, 3-(2-amino-6-(2-butoxyphenyl)quinolin-3-yl)-N-(cyclohexylmethyl)-2-methylpropanamide], for which the IC50 was under 500 nM in experiment [1] (setting [3]), under 50 nM in experiment [1] (setting [4]) and under 500 nM in experiment [2] (setting [5]).
In the case of `COc1ccccc1C(C)NC(=O)C(C)Cc1cc2cc(-c3ccccc3C)ccc2nc1N` (stereo not shown) [Example 104, 3-(2-amino-6-o-tolylquinolin-3-yl)-N-(1-(2-methoxyphenyl)ethyl)-2-methylpropanamide], the IC50 in experiment [1] (setting [3]) is under 500 nM; in experiment [2] (setting [5]) it was 1000 to 5000 nM.
In the case of `COc1ccccc1C(C)NC(=O)CCc1cc2cc(-c3ccccc3C)ccc2nc1N` (stereo not shown) [Example 105, 3-(2-amino-6-o-tolylquinolin-3-yl)-N-(1-(2-methoxyphenyl)ethyl)propanamide], the IC50 in experiment [1] (setting [3]) is under 500 nM; in experiment [2] (setting [5]) it was 1000 to 5000 nM.
Regarding `Cc1ccccc1-c1ccc2nc(N)c(CC(C)C(=O)NC(C)c3ccccc3F)cc2c1` (stereo not shown) [Example 106, 3-(2-amino-6-o-tolylquinolin-3-yl)-N-(1-(2-fluorophenyl)ethyl)-2-methylpropanamide], the IC50 in experiment [1] (setting [3]) was under 500 nM; in experiment [1] (setting [4]), under 50 nM; in experiment [2] (setting [5]) it was over 5000 nM.
Turning to `Cc1ccc(-c2ccc3nc(N)c(CC(C)C(=O)NCC4CCCCC4)cc3c2)c(F)n1` (stereo not shown) [Example 107, 3-(2-amino-6-(2-fluoro-6-methylpyridin-3-yl)quinolin-3-yl)-N-(cyclohexylmethyl)-2-methylpropanamide], the IC50 in experiment [1] (setting [3]) and in experiment [2] (setting [5]) was 1000 to 5000 nM throughout.
With `CC(Cc1cc2cc(-c3ccccc3CN(C)C)ccc2nc1N)C(=O)NCC1CCCCC1` (stereo not shown) [Example 108, 3-(2-amino-6-(2-((dimethylamino)methyl)phenyl)quinolin-3-yl)-N-(cyclohexylmethyl)-2-methylpropanamide], the IC50 in experiment [1] (setting [3]) is under 500 nM; in experiment [2] (setting [5]), under 500 nM; in experiment [2] (Homo sapiens, HEK293, bound stated in text, read-out: IC50 value in the BACE cell-based in-vitro assay), under 100 nM.
As for `Cc1cccnc1-c1ccc2nc(N)c(CC(C)C(=O)NCCC(C)C)cc2c1` (stereo not shown) [Example 109, 3-(2-amino-6-(3-methylpyridin-2-yl)quinolin-3-yl)-N-isopentyl-2-methylpropanamide], the IC50 in experiment [1] (setting [3]) and in experiment [2] (setting [5]) was under 500 nM throughout.
With `Cc1cccnc1-c1ccc2nc(N)c(CC(C)C(=O)NCC(F)(F)F)cc2c1` (stereo not shown) [Example 110, 3-(2-amino-6-(3-methylpyridin-2-yl)quinolin-3-yl)-2-methyl-N-(2,2,2-trifluoroethyl)propanamide], the IC50 in experiment [1] (setting [3]) and in experiment [2] (setting [5]) was 500 to 1000 nM in each case.
With `Cc1cccnc1-c1ccc2nc(N)c(CC(C)C(=O)NCCC3CC3)cc2c1` (stereo not shown) [Example 111, 3-(2-amino-6-(3-methylpyridin-2-yl)quinolin-3-yl)-N-(2-cyclopropylethyl)-2-methylpropanamide], the IC50 in experiment [1] (setting [3]) was under 500 nM; in experiment [2] (setting [5]), 1000 to 5000 nM.
As for `Cc1cccnc1-c1ccc2nc(N)c(CC(C)C(=O)NCCC(F)(F)F)cc2c1` (stereo not shown) [Example 112, 3-(2-amino-6-(3-methylpyridin-2-yl)quinolin-3-yl)-2-methyl-N-(3,3,3-trifluoropropyl)propanamide], the IC50 in experiment [1] (setting [3]) was under 500 nM; in experiment [2] (setting [5]), 500 to 1000 nM.
The like results for `Cc1cccnc1-c1ccc2nc(N)c(CC(C)C(=O)NCCC3CCCO3)cc2c1` (stereo not shown) [Example 113, 3-(2-amino-6-(3-methylpyridin-2-yl)quinolin-3-yl)-2-methyl-N-(2-(tetrahydrofuran-2-yl)ethyl)propanamide] were, in that order, 500 to 1000 nM and 1000 to 5000 nM.
Taken in the same sequence, the figures for `Cc1cccnc1-c1ccc2nc(N)c(CC(C)C(=O)N[C@H](C)C(F)(F)F)cc2c1` (stereo partly drawn) [Example 114, 3-(2-amino-6-(3-methylpyridin-2-yl)quinolin-3-yl)-2-methyl-N-((R)-1,1,1-trifluoropropan-2-yl)propanamide] were 1000 to 5000 nM and 1000 to 5000 nM.
For the compound `Cc1ccccc1-c1ccc2nc(N)c(CCC(=O)NCCC3CC3)cc2c1` [Example 115, 3-(2-amino-6-o-tolylquinolin-3-yl)-N-(2-cyclopropylethyl)propanamide], the IC50 in experiment [1] (setting [3]) was under 500 nM; in experiment [2] (setting [5]), 1000 to 5000 nM.
Taken in the same sequence, the figures for `CC(Cc1cc2cc(-c3ncccc3Cl)ccc2nc1N)C(=O)NCCC(F)(F)F` (stereo not shown) [Example 116, 3-(2-amino-6-(3-chloropyridin-2-yl)quinolin-3-yl)-2-methyl-N-(3,3,3-trifluoropropyl)propanamide] were 1000 to 5000 nM and over 5000 nM.
`Cc1cccnc1-c1ccc2nc(N)c(CC(C)C(=O)NCC3CCC(F)(F)CC3)cc2c1` (stereo not shown) [Example 117, 3-(2-amino-6-(3-methylpyridin-2-yl)quinolin-3-yl)-N-((4,4-difluorocyclohexyl)methyl)-2-methylpropanamide]: the IC50 in experiment [1] (setting [3]) was under 500 nM; in experiment [2] (setting [5]), 500 to 1000 nM.
Taken in the same sequence, the figures for `CCC1CCN1C(=O)C(C)Cc1cc2cc(-c3ncccc3C)ccc2nc1N` (stereo not shown) [Example 118, 3-(2-amino-6-(3-methylpyridin-2-yl)quinolin-3-yl)-1-(2-ethylazetidin-1-yl)-2-methylpropan-1-one] were over 5000 nM and over 5000 nM.
As for `COCC1CC1c1ccc2nc(N)c(CC(C)C(=O)NCCC(C)(C)C)cc2c1` (stereo not shown) [Example 119, 3-(2-amino-6-(2-(methoxymethyl)cyclopropyl)quinolin-3-yl)-N-(3,3-dimethylbutyl)-2-methylpropanamide], the IC50 in experiment [1] (setting [3]) and in experiment [2] (setting [5]) was over 5000 nM in each case.
Turning to `CCC1CC1c1ccc2nc(N)c(CC(C)C(=O)NCCC(C)(C)C)cc2c1` (stereo not shown) [Example 120, 3-(2-amino-6-(2-ethylcyclopropyl)quinolin-3-yl)-N-(3,3-dimethylbutyl)-2-methylpropanamide], the IC50 is 500 to 1000 nM in experiment [1] (setting [3]) and over 5000 nM in experiment [2] (setting [5]).
For the compound `CC(Cc1cc2cc([C@H]3C[C@H]3C)ccc2nc1N)C(=O)NCCC(C)(C)C` (stereo partly drawn) [Example 121, 3-(2-amino-6-((1S,2R)-2-methylcyclopropyl)quinolin-3-yl)-N-(3,3-dimethylbutyl)-2-methylpropanamide], the IC50 in experiment [1] (setting [3]) was 500 to 1000 nM; in experiment [2] (setting [5]), over 5000 nM.
In the case of `CC(Cc1cc2cc(-c3ccccn3)ccc2nc1N)C(=O)NCCC(C)(C)C` (stereo not shown) [Example 122, 3-(2-amino-6-(pyridin-2-yl)quinolin-3-yl)-N-(3,3-dimethylbutyl)-2-methylpropanamide], the IC50 in experiment [1] (setting [3]) is under 500 nM; in experiment [2] (setting [5]) it was 500 to 1000 nM.
The like results for `CC(Cc1cc2cc(-c3ncccc3CCN3CCOCC3)ccc2nc1N)C(=O)NCCC(C)(C)C` (stereo not shown) [Example 123, 3-(2-amino-6-(3-(2-morpholinoethyl)pyridin-2-yl)quinolin-3-yl)-N-(3,3-dimethylbutyl)-2-methylpropanamide] were, in that order, under 500 nM and under 500 nM.
The like results for `CC(Cc1cc2cc(-c3ncccc3CCN3CCN(C)CC3)ccc2nc1N)C(=O)NCCC(C)(C)C` (stereo not shown) [Example 124, 3-(2-amino-6-(3-(2-(4-methylpiperazin-1-yl)ethyl)pyridin-2-yl)quinolin-3-yl)-N-(3,3-dimethylbutyl)-2-methylpropanamide] were, in that order, 500 to 1000 nM and under 500 nM.
Take `CC(Cc1cc2cc(-c3ncccc3CCN3CCCC3)ccc2nc1N)C(=O)NCCC(C)(C)C` (stereo not shown) [Example 125, 3-(2-amino-6-(3-(2-(pyrrolidin-1-yl)ethyl)pyridin-2-yl)quinolin-3-yl)-N-(3,3-dimethylbutyl)-2-methylpropanamide]: the IC50 in experiment [1] (setting [3]) and in experiment [2] (setting [5]) was under 500 nM in each case.
Take `CC(Cc1cc2cc(-c3ncccc3CCN(C)C)ccc2nc1N)C(=O)NCCC(C)(C)C` (stereo not shown) [Example 127, 3-(2-amino-6-(3-(2-(dimethylamino)ethyl)pyridin-2-yl)quinolin-3-yl)-N-(3,3-dimethylbutyl)-2-methylpropanamide]: the IC50 in experiment [1] (setting [3]) and in experiment [2] (setting [5]) was under 500 nM in each case.
For the compound `COc1ccccc1[C@@H](C)NC(=O)C(C)Cc1cc2cc(-c3ccccc3C)ccc2nc1N` (stereo partly drawn) [Example 129, 3-(2-amino-6-o-tolylquinolin-3-yl)-N-((R)-1-(2-methoxyphenyl)ethyl)-2-methylpropanamide], the IC50 in experiment [1] (setting [3]) is under 500 nM; in experiment [2] (setting [6]) it was 1000 to 5000 nM.
Taken in the same sequence, the figures for `Cc1ccccc1-c1ccc2nc(N)c(CC(C)C(=O)N[C@H](C)c3ccccc3OC(F)F)cc2c1` (stereo partly drawn) [Example 130, 3-(2-amino-6-o-tolylquinolin-3-yl)-N-((R)-1-(2-(difluoromethoxy)phenyl)ethyl)-2-methylpropanamide] were under 500 nM and 1000 to 5000 nM.
Consider `Cc1ccccc1-c1ccc2nc(N)c(CCC(=O)N[C@H](C)c3cccnc3)cc2c1` [Example 131, (R)-3-(2-amino-6-o-tolylquinolin-3-yl)-N-(1-(pyridin-3-yl)ethyl)propanamide], for which the figures for the IC50 in experiment [1] (setting [3]) and in experiment [2] (setting [6]) were under 500 nM and 1000 to 5000 nM, respectively.
Regarding `Cc1cccnc1-c1ccc2nc(N)c(CCC(=O)N[C@H](C)c3cccnc3)cc2c1` [Example 132, (R)-3-(2-amino-6-(3-methylpyridin-2-yl)quinolin-3-yl)-N-(1-(pyridin-3-yl)ethyl)propanamide], the IC50 in experiment [1] (setting [3]) was 1000 to 5000 nM; in experiment [2] (setting [5]), over 5000 nM.
The like results for `Cc1cccnc1-c1ccc2nc(N)c(CCC(=O)N[C@H](C)c3ccccc3OC(F)F)cc2c1` [Example 133, (R)-3-(2-amino-6-(3-methylpyridin-2-yl)quinolin-3-yl)-N-(1-(2-(difluoromethoxy)phenyl)ethyl)propanamide] were, in that order, 1000 to 5000 nM and over 5000 nM.
